The record followed here is US6949522B2, “β-2′- or 3′-halonucleosides” (Pharmasset, Inc., priority 2001, dated 2005).

In data set [1] the test system is 3TC-resistant (xxBRU 184V) HIV-1. Description: HIV-1 Q-RT-PCR assay in human PBM cells, strain xxBRU 184V. Particulars: for EC90: human PBM cells, 5 days, viral RNA reduced by 90%, read-out: Q-RT-PCR HIV-1 assay 184V EC90. The format is cell-based. How it is done:
(§1) Human PBM cells (1×10^6 cells/T25 flask) were PHA stimulated for 2 or 3 days, and infected with either a wild type (LAI and xxBRU) or a 3TC-resistant (xxBRU 184V) HIV-1 strain at 100 TCID50, as previously described (27). The culture was kept for 5 days in presence of test compounds at serial 1-log dilutions. Subsequently, human PBM cells were removed from the culture supernatant by centrifugation (10 minutes, 400×g, 4° C.). This clarified supernatant was tested either in the RT-assay, or in the Q-RT-PCR assay.
(§2) Viral RNA present in the culture supernatant was prepared using commercially available columns (QIAamp Viral RNA mini Kit, Qiagen, Valencia, Calif.). Viral RNA was detected in real-time by monitoring increases in fluorescence signal that resulted from degradation of a quenched fluorescent probe molecule following the hybridization of the probe to the arnplified viral DNA (TaqMan 7700 chemistry, Applied Biosystems, Foster City, Calif.). The TaqMan probe and primers were designed using the Primer Express software (Applied Biosystems); they cover highly conserved sequences complementary to an 81 base pair long fragment from the HIV-1 RT gene between codon 230 and 257 of the group MHIV-1 genome; • probe 5′-6FAM-[…]-TAMRA-3′ (Sequence 1) • sense primer: 5′-[…]-3′ (Sequence 2); and • antisense primer 5′-[…]-3′ (Sequence 3).
(§3) A total of 5 μL RNA was RT-amplified using reagents and conditions as described by the manufacturer (Applied Biosystems). […] Copy numbers were calibrated using the Roche Amplicor HIV-1 Monitor test™ (Roche Diagnostics, Branchburg, N.J.) on a 1-log dilution series of a clinical HIV-1 genotype B isolate (attenuated in vitro to obtain a high viral load). The 10-6 diluted sample became positive at threshold cycle (Ct=PCR cycle threshold where a sample becomes detectable)=35.52, which corresponded to 1,410 copies/mL in the Roche monitor HIV-1 version II assay. When validated over a dynamic range of 3 logs of virus, there was excellent correlation (r2˜1) between the two methodologies. […] Therefore, the currently designed primer and probe set allowed reliable quantification of both clinical samples and HIV-1 in vitro preparations.
(§4) HIV-1 present in culture supernatant fluids was quantified by two different methodologies: i) the Q-RT-PCR with read-out in log copies/mL; and ii) the endogenous viral RT assay on cell supernatant with read-out in log counts per minute/mL (CPM/mL). Upon addition of antiviral compounds to the culture media, a dose-related decrease in virus production was observed. Although the two methodologies measured different parameters (viral RNA versus active RT enzyme), results were not markedly different from each other. The HIV-1 Q-RT-PCR results were compared with a previously established cell-based antiviral drug evaluation assay (endogenous HIV-1 RT polymerization activity in cell supematant)(27).

Data set [2] concerns HIV-1 LAI (wild type). Description: HIV-1 Q-RT-PCR assay in human PBM cells, strain LAI. The format is cell-based. Particulars: 5 days, viral RNA reduced by 90%. How it is done:
as §1, §2, §3, §4

Data set [3] has as its system 3TC-resistant (xxBRU 184V) HIV-1. Kind of data set: HIV-1 RT-assay on supernatant of acutely infected human PBM cells, strain xxBRU 184V. The format is cell-based. Particulars: for EC90: human PBM cells, 5 days, RT activity reduced by 90%, read-out: RT-Assay 184V EC90. How it is done: as §1
(§5) Virus particles present in a 1 mL aliquot of culture supernatant were concentrated by high-speed centrifugation (2 hours, 20,000×g, 4° C.). The supernatant was then removed and the virus pellet was dispensed into a 100 μL virus solubilization buffer (VSB: 0.5% Triton X-100; 0.8 M NaCl, 0.5 mM phenylmethylsulfonyl, 20% glycerol, 50 mM Tris.HCl pH 7.8). A 10 μL aliquot of RT-VSB was mixed with 75 μL RT cocktail (60 mM Tris.HCl pH 7.8, 12 mM MgCl2, 6 mM DTT, 6 μg/mL poly (rA)n-oligo (dT)10-12, 1.2 mM dATP, and 80 μCi/mL 3H-TTP) and incubated for 2 hours at 37° C. Subsequently 100 μL of 10% TCA was added, and the total amount of incorporated 3H-TTP was determined.
as §4

A further data set concerns HepG2. Kind of data set: Toxicity assay (MTS/MTT dye), HepG2 cells. Particulars: for Cytotoxicity HepG2 IC30: HepG2, three day-incubation (Table 1). As for the experimental part: (§6) After a three day-incubation for HepG2, or 5 days for human PBM cells, cell viability and mitochondrial activity were measured in a colorimetric assay using the MTS- or MTT dye method (Promega, Madison, Wis.).
For orientation: Formazan colour is commonly taken as a measure of viable cells.

Data set [4] has as its system HIV-1 LAI (wild type). Description: HIV-1 RT-assay on supernatant of acutely infected human PBM cells, strain LAI. The format is cell-based. Particulars: 5 days, RT activity reduced by 90%. How it is done: as §1, §5, §4
In another data set the test system is human PBM cells. Description: Toxicity assay (MTS/MTT dye), human PBM cells. Particulars: read-out: Cytotoxicity PBM IC50; human PBM cells, 5 days incubation. As for the experimental part:
as §6

The test system of data set [5] is HIV-1 xxBRU (wild type). Kind of data set: HIV-1 RT-assay on supernatant of acutely infected human PBM cells, strain xxBRU. The format is cell-based. Particulars: 5 days, RT activity reduced by 90%. As for the experimental part:
as §1, §5, §4

In the next data set the test system is BVDV (strain NADL). Kind of data set: BVDV Q-RT-PCR assay in MDBK cells. The format is cell-based, bovine viral diarrhea virus. As to conditions: MDBK cells, 24 hour incubation, viral RNA in supernatant, read-out: BVDV assay Q-PCR EC90. How it is done: Madin-Darby Bovine Kidney (MDBK) cells were maintained in DMEM/F12 supplemented with 10% heat-inactivated horse serum at 37° C. in a humidified, 5% CO2 atmosphere. Cells were seeded in 96-well plates at 5×10^3 cells/wcll and incubated for 1 hour. BVDV (strain NADL) was used to infect the cells in monolayer at MOI 0.02. After 45 minutes of infection, the viral inoculum was removed and the cells were washed twice. Media or media containing test compound was added to these cells, followed by 24 hour incubation. Cell supernatant fluids were collected, clarified by centrifugation (2 minutes, 3,000 g, room temperature) and viral RNA was prepared (QIAamp Viral RNA mini Kit, Qiagen). Viral RNA was detected in real-time RT-PCR.

Data set [6] deals with HIV-1 xxBRU (wild type). Description: HIV-1 Q-RT-PCR assay in human PBM cells, strain xxBRU. The format is cell-based. Particulars: 5 days, viral RNA reduced by 90%. How it is done: as §1, §2, §3, §4
Data set [7] can be described thus: in vitro. Particulars: human. How it is done: as §6
Data set [8] can be described thus: in vitro. As to conditions: human. As for the experimental part:
as §6
This is another data set of the same source.

A further data set has as its system HBV. Kind of data set: HBV Q-PCR assay in HepAD38 (AD38) cells. The format is cell-based, hepatitis B virus. Particulars: AD38 cells, 5-day incubation, HBV DNA in supernatant, read-out: HBV assay Q-PCR EC90. As for the experimental part: The HepAD38 cell line replicates HBV under conditions that can be regulated with tetracycline (12, 15). In the presence of this drug, the cell supernatant is virtually free of viral DNA, but upon the removal of tetracycline from the culture medium, these cells secrete virus-like particle into the supernatant (12). HepAD38 cells were seeded at 5×10^4 cells/well in a 96-well plate in seeding medium (DMEM/F12+10% FBS, 50 μg/mL penicillin, 50 μg/mL streptomycin, 100 μg/mL kanamycin, 400 μg/mL G418, and 0.3 μg/mL tetracycline) and incubated for 2 days at 37° C. in a 5% CO2 humid atmosphere. The seeding media was removed, and cells were washed 3 times with PBS. Cells were then incubated with 200 μL assay medium (DMEM/F12+10% FBS+P/S/K) containing either no compound, test compound, or control drugs at 10 μM. After a 5-day incubation, the cell supernatant was collected and stored at −70° C. until HBV DNA was quantified. HBV DNA was extracted from supernatant using QiaAmp DNA blood Mini kit (Qiagen) and nucleic acids eluted in 200 μL. Viral DNA was detected in Q-PCR. The TaqMan probe and primers were designed using the Primer Express software (Applied Biosystems) and cover highly conserved sequences complementary to the DNA sequences present in HBsAg (24). A total of 5 μL DNA was amplified using reagents and conditions as described by the manufacturer (Applied Biosystems). […]

Where two headings read alike, the source gives them in different places.

`Nc1nc(=O)n([C@H]2C=C[C@@H](CO)O2)cc1F` [D-D4FC, β-D-2′,3′-didehydro-2′3′-dideoxy-5-fluorocytidine, reference compound]: the “Q-RT-PCR HIV-1 assay FI, fold increase (EC90 HIV-1184V/EC90 HIV-1xxBRU)” value in data set [1] came out at 0.97. In addition, the EC90 in data set [1] was 0.21 µM; with HIV-1 LAI (wild type) [2], 0.38 µM; in [3], 0.15 µM; in the data set with HIV-1 LAI (wild type) [4], 0.18 µM; with HIV-1 xxBRU (wild type) [5], 0.08 µM; in the data set with BVDV (strain NADL), above 200 µM. In the data set with HIV-1 xxBRU (wild type) [6], the EC90 amounted to 0.22 µM. Besides, in data set [3], the “RT-Assay FI, fold increase (EC90 HIV-1184V/EC90 HIV-1xxBRU)” value (shortened to “RT-Assay FI, fold increase”) was found to be 1.9. Besides, the “Cytotoxicity HepG2 IC30” value in the data set on HepG2 is above 100 µM. Also, the IC50 in the data set with HepG2 (read-out: Cytotoxicity HepG2 IC50, HepG2, three day-incubation (Table 3)) was above 100 µM; with human PBM cells it was 80 µM.

In the case of `NC(=O)c1ncn([C@@H]2O[C@H](CO)[C@@H](O)[C@H]2O)n1` [Ribavirin, 1-β-D-ribofuranosyl-1H-,1,2,4-triazole-3-carboxamide, reference compound], in the data set “in vitro [7]”, the IC50 at 3 days is 90 µM. The molecule further yielded an IC50 at 5 days in “in vitro [8]” above 100 µM. Moreover, the EC90 in the data set on BVDV (strain NADL) (Bovine viral diarrhea virus isolates and strains) is 5 µM; in the data set with HBV (Hepatitis B virus, HePAD38, 120 h), above 100 µM.

Consider “β-D-2′,3′-didehydro-2′,3.′-dideoxy-3′-fluoro-5-fluoro cytidine [Compound 10-F]”, for which the EC90 was above 100 µM in data set [1]; 36.3 µM in the data set with HIV-1 LAI (wild type) [2]; 494 µM in [3]; 34.5 µM in the data set with HIV-1 LAI (wild type) [4]; 37.5 µM with HIV-1 xxBRU (wild type) [5]; above 200 µM in the data set on BVDV (strain NADL). The values for the EC90 in the data set on HBV and in the data set on HIV-1 xxBRU (wild type) [6] were above 100 µM and 34.8 µM, respectively. Moreover, the “RT-Assay FI, fold increase” value in data set [3] is 13.2. In the data set on HepG2, the “Cytotoxicity HepG2 IC30” value was above 100 µM.

On to “β-L-2′,3′-didehydro-2′,3.′-dideoxy-3′-fluoro-5-fluoro cytidine [Compound 23-F]”, for which the “Q-RT-PCR HIV-1 assay FI, fold increase (EC90 HIV-1184V/EC90 HIV-1xxBRU)” value in data set [1] is recorded as 333. For the same molecule, the 90% effect concentration (EC90) was 53 µM in data set [1]; 0.09 µM in the data set on HIV-1 LAI (wild type) [2]; 67 µM in data set [3]; 0.12 µM in the data set with HIV-1 LAI (wild type) [4]; 0.14 µM in the data set with HIV-1 xxBRU (wild type) [5]; above 200 µM with BVDV (strain NADL). In addition, the EC90 with HBV is 68 µM; in the data set with HIV-1 xxBRU (wild type) [6], 0.16 µM. For the same molecule, the “RT-Assay FI, fold increase” value in data set [3] is given as 479. Moreover, the “Cytotoxicity HepG2 IC30” value with HepG2 was above 100 µM.

What is called EC90 is the concentration at which the effect reaches the 90% level. The term IC50 denotes the midpoint of a concentration-inhibition curve.
